Measurements published in PubChem BioAssay (NCI).
Several values for one entry are separate records, joined by “and”; a condition that tells them apart may be missing. Equal entries are not always repeated.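 96-well plates; 48 h exposure; 5 concentrations. Endpoints by linear interpolation between flanking doses. Not reached: highest tested concentration assigned. The concentration for 50% growth inhibition is given as GI50. TGI: total growth inhibition.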

What was measured:
Assay in all cases: NCI tumour cell line growth inhibition, 48 h
ACHN renal = test system: ACHN renal
CAKI-1 renal = test system: CAKI-1 renal
COLO 205 colon = test system: COLO 205 colon
HCT-15 colon = test system: HCT-15 colon
NCI-H522 lung = test system: NCI-H522 lung
OVCAR-3 ovarian = test system: OVCAR-3 ovarian
OVCAR-4 ovarian = test system: OVCAR-4 ovarian
SF-539 CNS = test system: SF-539 CNS
SN12C renal = test system: SN12C renal
TK-10 renal = test system: TK-10 renal

Structure (SMILES) | GI50 (ACHN renal) | TGI (ACHN renal) | GI50 (CAKI-1 renal) | TGI (CAKI-1 renal) | GI50 (COLO 205 colon) | TGI (COLO 205 colon) | GI50 (HCT-15 colon) | TGI (HCT-15 colon) | GI50 (NCI-H522 lung) | TGI (NCI-H522 lung) | GI50 (OVCAR-3 ovarian) | TGI (OVCAR-3 ovarian) | GI50 (OVCAR-4 ovarian) | TGI (OVCAR-4 ovarian) | GI50 (SF-539 CNS) | TGI (SF-539 CNS) | GI50 (SN12C renal) | TGI (SN12C renal) | GI50 (TK-10 renal) | TGI (TK-10 renal)
COc1ccccc1/C=C1\COc2ccc(-c3ccccc3)cc2C1=O | 3.86 µM | 26 µM | 4.74 µM | > 100 µM | 3.57 µM | 13 µM | 2.64 µM | 13.1 µM | 3.1 µM | > 100 µM | 2.58 µM | 5.48 µM | 3.74 µM | > 100 µM | 2.61 µM | 6.44 µM | 3.17 µM | > 100 µM | 2.64 µM | 7.91 µM
CO/N=C(\COc1ccc2c(=O)c3ccccc3oc2c1)c1ccccc1 | 24 µM | 52.7 µM | 1.19 µM | 4.89 µM | > 100 µM | > 100 µM | 51.9 µM | > 100 µM | 33.4 µM | > 100 µM | 27.4 µM | 79.3 µM | 84.3 µM | > 100 µM | 19 µM | 50.6 µM | 35.1 µM | > 100 µM | 18.6 µM | 38.1 µM
CC(C)N(C(=O)c1cccc(C(=O)N(C(C)C)C(C)C)c1)C(C)C | – | > 100 µM | – | > 100 µM | – | > 100 µM | – | > 100 µM | – | > 100 µM | – | > 100 µM | – | > 100 µM | – | > 100 µM | – | > 100 µM | – | > 100 µM
C=CC(=O)N1CCC(c2ccc(C(N)=O)c(-c3ccc(Oc4ccccc4)cc3)n2)CC1 | 25.3 µM | > 100 µM | 15.8 µM | > 100 µM | 42 µM | > 100 µM | 25.2 µM | > 100 µM | 11.2 µM | 60.3 µM | 36 µM | > 100 µM | 21.6 µM | > 100 µM | 40.3 µM | > 100 µM | 28.2 µM | > 100 µM | 19.2 µM | 99.4 µM
CCOC(=O)N1C/C(=C\c2ccccc2)C(=O)/C(=C/c2ccccc2)C1 | – | 10.6 µM | – | 4.51 µM | – | 11.6 µM | – | 5.74 µM | – | 7.44 µM | – | 14.5 µM | – | 13.6 µM | – | 11 µM | – | 5.61 µM | – | 26.4 µM
CCO/C=C1\N=C(c2ccc(Cl)c(Cl)c2)OC1=O | – | > 100 µM | – | > 100 µM | – | > 100 µM | – | > 100 µM | – | > 100 µM | – | > 100 µM | – | > 100 µM | – | > 100 µM | – | > 100 µM | – | > 100 µM
CC(C)C1CO[C@]2(C)CCC(=O)N12 (some centres undefined) | – | > 100 µM | – | > 100 µM | – | > 100 µM | – | > 100 µM | – | > 100 µM | – | > 100 µM | – | > 100 µM | – | > 100 µM | – | > 100 µM | – | > 100 µM
O=C(NCCN1CCOCC1)OCc1nc2nc(Cl)nc(N3CCOCC3)c2[nH]1 | 0.901 µM | > 100 µM | 3.07 µM | > 100 µM | > 100 µM | > 100 µM | 3.09 µM | > 100 µM | 1.11 µM | > 100 µM | 1.15 µM | 7.18 µM | 9.69 µM | > 100 µM | 0.402 µM | 3.29 µM | 2.16 µM | > 100 µM | > 100 µM | > 100 µM
COc1ccc(C(=O)Cn2c(C(=O)c3ccccc3)nc3ccccc32)cc1 | 6.23 µM | > 100 µM | > 100 µM | > 100 µM | 5.12 µM | > 100 µM | 1.24 µM | > 100 µM | 2.16 µM | > 26.7 µM | 2.59 µM | > 21.6 µM | 9.9 µM | > 100 µM | 3.03 µM | > 100 µM | > 27.7 µM | > 100 µM | 11 µM | > 100 µM
O=[N+]([O-])/C=C/c1c(Cl)cccc1Cl | – | 7.49 µM | – | 7.86 µM | – | 1.76 µM | – | 5.04 µM | – | 5.95 µM | – | 3.28 µM | – | 11.4 µM | – | 5.12 µM | – | 5.65 µM | – | 8.25 µM
c1ccc(-c2nn3c(c2-c2ccnc4cc(OCCN5CCOCC5)ccc24)CCC3)nc1 | 36.3 µM | > 100 µM | 45.6 µM | > 100 µM | 41.6 µM | > 100 µM | 31.5 µM | > 100 µM | 44.8 µM | > 100 µM | > 69.9 µM | > 100 µM | > 100 µM | > 100 µM | > 100 µM | > 100 µM | 50.4 µM | > 100 µM | > 100 µM | > 100 µM
O=C1CCc2c(sc3[nH]c(=S)n(-c4cc(C(F)(F)F)cc(C(F)(F)F)c4)c(=O)c23)C1 | 0.344 µM | 1.31 µM | 0.377 µM | 4.54 µM | 0.258 µM | 0.668 µM | 0.338 µM | 1.36 µM | 0.344 µM | 1.5 µM | 0.358 µM | 1.49 µM | 0.359 µM | 1.72 µM | 0.362 µM | 1.7 µM | 0.352 µM | 11.8 µM | 0.874 µM | > 44.1 µM
COc1cc(-c2nc3ccccc3s2)ccc1OCCCCOc1cc2c(cc1OC)C(=O)N1CCC[C@H]1C=N2 | 1.31 µM | 5.8 µM | 0.949 µM | 11.6 µM | 0.697 µM | 2.26 µM | 1.7 µM | 4.46 µM | 0.736 µM | 3.16 µM | 0.728 µM | 4.78 µM | 1.5 µM | 7.61 µM | 1.61 µM | 3.22 µM | 1.39 µM | 3.87 µM | 2.27 µM | 8.81 µM
O=C1NC(N/N=C\C(O)C(O)C(O)C(O)CO)=N/C1=C/c1ccccc1 (centres undefined) | 80.6 µM and 14.7 µM and > 100 µM | > 100 µM and 28.1 µM | > 100 µM and 19.4 µM | > 100 µM and 38.1 µM | > 100 µM and 19.3 µM | > 100 µM and 41.6 µM | 51.9 µM and 12.7 µM and > 100 µM | > 100 µM and 33.8 µM | 96.5 µM and 18.6 µM and > 100 µM | > 100 µM and 40.5 µM | 97.1 µM and 20.5 µM and > 100 µM | > 100 µM and 37.7 µM | 52.7 µM and 14.5 µM and > 100 µM | > 100 µM and 33.8 µM | > 100 µM and 17.4 µM | > 100 µM and 35.3 µM | 75.4 µM and 15.5 µM and > 100 µM | > 100 µM and 36.3 µM | > 100 µM and 19 µM | > 100 µM and 48.3 µM
O=[N+]([O-])c1cc[n+]([O-])c2ccccc12 | 0.142 µM | 0.512 µM | 0.307 µM | 0.937 µM | 0.153 µM | 0.488 µM | 0.279 µM | 1.42 µM | 0.214 µM | 0.754 µM | 0.197 µM | 0.471 µM | 1.78 µM | 3.17 µM | 0.181 µM | 0.541 µM | 0.244 µM | 1.13 µM | 0.187 µM | 0.707 µM
C1=C(c2ccccc2)C(N2CCOCC2)Oc2ccccc21 (centres undefined) | – | > 100 µM | – | > 100 µM | – | > 100 µM | – | > 100 µM | – | > 100 µM | – | > 100 µM | – | > 100 µM | – | > 100 µM | – | > 100 µM | – | > 100 µM
COc1c(C(C)=O)c(OCCCCOc2c(C(C)=O)c(OC)c3ccoc3c2OC)c(OC)c2occc12 | 3.6 µM | > 100 µM | 3.3 µM | > 100 µM | 4.35 µM | > 100 µM | 3.88 µM | > 100 µM | 2.63 µM | > 100 µM | 3.75 µM | > 100 µM | 3.39 µM | > 100 µM | > 100 µM | > 100 µM | > 100 µM | > 100 µM | > 23.4 µM | > 100 µM
ClC(Cl)=C(Cl)C1(Cl)CC1COCc1ccccc1 (centres undefined) | – | > 100 µM | – | > 100 µM | – | 61.1 µM | – | > 100 µM | – | 44.2 µM | – | 68.2 µM | – | > 100 µM | – | > 100 µM | – | > 100 µM | – | > 100 µM
CCOc1ccc2c(-c3ccnc(Nc4cc(OC)cc(C(F)(F)F)c4)n3)cnn2n1 | > 25 µM | > 25 µM | > 10.3 µM | > 25 µM | > 25 µM | > 25 µM | > 23.3 µM | > 25 µM | 1.85 µM | > 10.9 µM | 6.2 µM | > 25 µM | > 15.8 µM | > 25 µM | 5.96 µM | > 14.7 µM | > 25 µM | > 25 µM | > 16.3 µM | > 25 µM
CCC[CH2][Sn]([CH2]CCC)([O]C(=O)c1cc(OC)c(OC)cc1OC)[O][Sn]([CH2]CCC)([CH2]CCC)[O]C(=O)c1cc(OC)c(OC)cc1OC | 0.339 µM | 1.17 µM | 0.161 µM | 0.686 µM | 0.381 µM | 1.32 µM | 0.497 µM | 1.71 µM | – | 0.0556 µM | 0.798 µM | 2.07 µM | 1.33 µM | 2.96 µM | 0.314 µM | 1.01 µM | 0.532 µM | 1.72 µM | 1.53 µM | 2.86 µM
OCCCCC#Cc1ccccc1C#Cc1ccc(O)cc1 | 16.6 µM | 31.2 µM | 15.7 µM | 30.3 µM | 21.6 µM | 45.9 µM | 14.1 µM | 28 µM | 13.8 µM | 28.8 µM | 14.8 µM | 30.4 µM | 15.8 µM | 31.9 µM | 17.9 µM | 35.9 µM | 18.8 µM | 34.8 µM | 17.5 µM | 31.7 µM
